# Data as given in US20100144655A1, “ORGANIC COMPOUNDS” (NOVARTIS AG, priority 2008, published 2010).
# How the values were obtained:
# [1] = Bioavailability (tests not described); format: in vivo; details: salt forms
# [2] = Storage properties (standard tests, not described); format: physicochemical; details: salt forms
# [3] = test system: dengue virus serotype 2 strain New Guinea C; experiment: Cell-based flavivirus immunodetection (CFI) assay; details: for EC50: Dengue virus, A549, read-out: EC50 in the CFI assay for dengue virus
# Description: (§1) The CFI assay is based on quantitative immunodetection of the viral envelope protein, E, as a readout for viral load in target cells. In the CFI assay, the compounds of the invention show activity against dengue virus (e.g. dengue virus serotype 2). […] The HCV replicon contains an inserted firefly luciferase construct in its sequence. The genome of the HCV replicon is maintained as RNA species in a Huh-7 cell line (Krieger et al. Journal of Virology 2001; 75(10):4614-24). Measurement of luciferase activity is used as a surrogate marker for viremia in target cells.
# 50% effective concentration (EC50), is the concentration of the test compound that decreases the signal generated by the virus by 50%. It is calculated using nonlinear regression analysis using the variable slope sigmoidal dose-response curve, with commercial software such as Prism or ActivityBase.
# A549 cells (e.g. available from ATCC #CCL-185) are trypsinized, counted and diluted to 2×10^5 cells/ml in Hams F-12 media supplemented with 2% fetal bovine serum and 1% penicillin/streptomycin. 2×10^4 cells are dispensed in clear 96-well tissue culture plate per well and placed at 37° C., 5% CO2 overnight. On the next day, the cells are infected with virus (dengue serotype 2, NGC strain, e.g. available from ATCC #VR-1584) at multiplicity of infection (MOI) of 0.3 in the presence of varied concentrations of test compounds for 1 hour at 37° C. and 5% CO2 in the same media. The medium containing virus and the compounds is removed, replaced with fresh medium containing only the test compounds and incubated at 37° C., 5% CO2 for another 48 hours. The cells are washed once with PBS and fixed with cold methanol for 10 min. After washing twice with PBS, the fixed cells are blocked with PBS containing 1% FBS and 0.05% Tween-20 for 1 hour at room temperature. The primary antibody solution (4G2) is then added at a concentration of 1:20 to 1:100 in PBS containing 1% FBS and 0.05% Tween-20 for 3 hours. The cells are then washed three times with PBS followed by one hour incubation with horseradish peroxidase (HRP)-conjugated anti-mouse IgG (Sigma, 1:2000 dilution). After washing three times with PBS, 50 μL of 3,3′,5,5′-tetramethylbenzidine (TMB) substrate solution (Sigma) is added to each well for two minutes. The reaction is stopped by addition 0.5M sulfuric acid. The plates are read at 450 nm absorbance for viral load quantification. After measurement, the cells are washed three times with PBS, followed by incubation with propidium iodide for 5 min. The plate is read in a Tecan Safire plate reader (excitation 537 nm, emission 617 nm) for cell number quantification. Dose response curves are plotted from the mean absorbance versus the log of the concentration of test compounds. The EC50 is calculated by nonlinear regression analysis. A positive control may be used, such as, for example, (2R,3R,4R,5R)-2-(4-amino-pyrrolo[2,3-d]pyrimidin-7-yl)-3-ethynyl-5-hydroxymethyl-tetrahydrofuran-3,4-diol.
# TSV01 dengue virus 2 = experiment: Mouse model of dengue virus infection (viremia by plaque assay); format: in vivo, AG129 mice
# Experimental: The compounds of the invention also show activity in vivo in a mouse model of dengue infection (Schul et al. Journal of Infectious Diseases 2007; 195:665-74). Briefly, AG129 mice (B&K Universal Ltd, Hull, UK) are housed in individually ventilated cages (TechniPlast, Italy) and used between 6 and 10 weeks of age. Mice are injected intraperitoneally with 0.6 ml TSV01 dengue virus 2 suspension. Blood samples are taken by retro orbital puncture under isoflurane anaesthesia. Blood samples are collected in tubes containing sodium citrate to a final concentration of 0.4%, and immediately centrifuged for 3 minutes at 6000 g to obtain plasma. 20 μL of plasma is diluted in 780 μL RPMI1640 medium and snap frozen in liquid nitrogen for plaque assay analysis. Remaining plasma is used for cytokine and NS1 protein level determination. Mice develop dengue viremia rising over several days, peaking on day 3 post-infection.
# For testing of antiviral activity, a compound of the invention is dissolved in vehicle fluid, e.g. 10% ethanol, 30% PEG 300 and 60% D5W (5% dextrose in water); or 6N HCl (1.5 eq): 1N
# NaOH (pH adjusted to 3.5): 100 mM citrate buffer pH 3.5 (0.9% v/v: 2.5% v/v: 96.6% v/v). Thirty six 6-10 week old AG129 mice are divided into six groups of six mice each. All mice are infected with dengue virus as described above (day 0). Group 1 is dosed by oral gavage of 200 μL/mouse with 13 mg/kg of a compound of the invention twice a day (once early in the morning and once late in the afternoon) for three consecutive days starting on day 0 (first dose just before dengue infection). […] Thus, Groups 1 and 2 are dosed with a compound of the invention at 13 mg/kg and 32 mg/kg respectively, and Groups 3 and 4 are dosed with another compound of the invention at 13 mg/kg and 32 mg/kg respectively. A positive control may be used, such as, e.g., (2R,3R,4R,5R)-2-(4-amino-pyrrolo[2,3-d]pyrimidin-7-yl)-3-ethynyl-5-hydroxymethyl-tetrahydrofuran-3,4-diol, dosed by oral gavage of 200 μL/mouse the same way as the previous groups. A further group is treated with only vehicle fluid.
# On day 3 post-infection approximately 100 μL blood samples, anti-coagulated with sodium citrate, are taken from the mice by retro-orbital puncture under isoflurane anaesthesia. Plasma is obtained from each blood sample by centrifugation and snap frozen in liquid nitrogen for plaque assay analysis. The collected plasma samples are analyzed by plaque assay as described in Schul et al. Journal of Infectious Diseases 2007; 195:665-74. Cytokines are also analysed as described in Schul et al. Journal of Infectious Diseases 2007; 195:665-74. NS1 protein levels are analysed using a Platelia® kit (BioRad Laboratories). An anti-viral effect is indicated by a reduction in cytokine levels and/or NS1 protein levels.
# HCV replicon = experiment: Cell-based HCV replicon assay (Huh-luc/neo-ET, luciferase); set-up: species or system Hepatitis C virus; details: for EC50: Hepatitis C virus, Huh-7 cell line, luciferase readout
# Description: as §1
# HVC replicon-containing cells, Huh-luc/neo-ET (e.g. as described in Krieger et al., Journal of Virology, 2001; 75(10):4614-24), are maintained in DMEM medium containing 2 mM […], 0.1 mM non-essential amino acid solution, 10% heat-inactivated fetal bovine serum and […] Geneticin®, G418 sulfate solution. The cells are kept between 20 to 80% confluency and are trypsinized with trypsin (0.05%)/EDTA solution. After trypsinization, cells are resuspended in supplemented DMEM phenol red-free medium (DMEM phenol red free supplemented with 2 mM L-glutamine, 0.1 mM non-essential amino acid solution, 10% of heat-inactivated fetal bovine serum and 1 mM sodium pyruvate) and pelleted by centrifugation at 420 g for 5 min. Cell density is calculated and diluted to 1×10^5 cells/mL with phenol red-free medium.
# Two sets of plates are prepared, a white opaque 96-well plate for the luciferase reading and a 96-well clear plate for cytotoxicity measurement. Each well is seeded with 10,000 cells/well and incubated overnight at 37° C., 5% CO2. After incubation, the medium is aspirated and phenol red free medium supplemented with various concentrations of compounds is added and the plates further incubated for at 37° C., 5% CO2 for another 48 hours. A positive control may be used, such as, for example, (2R,3R,4R,5R)-2-(4-amino-pyrrolo[2,3-d]pyrimidin-7-yl)-3-ethynyl-5-hydroxymethyl-tetrahydrofuran-3,4-diol.
# For determination of luciferase activity, the plates are removed from the incubator to allow them to equilibrate to room temperature for 30 minutes and luciferase activity is measured after the addition of 100 μL of the Britelite® (PerKin Elmer) prepared according to manufacturer's instructions.
# [4] = 32 mg/kg bid, oral gavage, 3 days, AG129 mice
compound,measurement,setting,value
"C#C[C@@]1(O)[C@H](O)[C@@H](CO)O[C@H]1n1ccc2c(N)ncnc21.C#C[C@@]1(O)[C@H](O)[C@@H](CO)O[C@H]1n1ccc2c(N)ncnc21.O=S(=O)(O)c1cccc2c(S(=O)(=O)O)cccc12 [(2R,3R,4R,5R)-2-(4-amino-pyrrolo[2,3-d]pyrimidin-7-yl)-3-ethynyl-5-hydroxymethyl-tetrahydrofuran-3,4-diol napadisylate 2:1 salt]",bioavailability (in words),[1],good bioavailability
same,storage properties (in words),[2],good storage properties
"C#C[C@@]1(O)[C@H](OC(=O)[C@@H](N)C(C)C)[C@@H](CO)O[C@H]1n1ccc2c(N)ncnc21 [Compound 3, (S)-2-Amino-3-methyl-butyric acid (2R,3R,4R,5R)-5-(4-amino-pyrrolo[2,3-d]pyrimidin-7-yl)-4-ethynyl-4-hydroxy-2-hydroxymethyl-tetrahydro-furan-3-yl ester]",activity in the CFI assay (in words),[3],exhibit activity
same,EC50,[3],~860 nM
same,reduction in viremia,TSV01 dengue virus 2; [4],about 45 fold
same,activity in vivo in a mouse model of dengue virus infection (in words),TSV01 dengue virus 2,exhibit activity
same,activity in the HCV replicon assay (in words),HCV replicon,exhibit activity
same,EC50,HCV replicon,~66 nM
"C#C[C@@]1(O)[C@H](OC(=O)C(C)C)[C@@H](CO)O[C@H]1n1ccc2c(N)ncnc21 [Compound 4, Isobutyric acid (2R,3R,4R,5R)-5-(4-amino-pyrrolo[2,3-d]pyrimidin-7-yl)-4-ethynyl-4-hydroxy-2-hydroxymethyl-tetrahydro-furan-3-yl ester]",activity in the CFI assay (in words),[3],exhibit activity
same,EC50,[3],~318 nM
same,reduction in viremia,TSV01 dengue virus 2; [4],about 113 fold
same,activity in vivo in a mouse model of dengue virus infection (in words),TSV01 dengue virus 2,exhibit activity
same,activity in the HCV replicon assay (in words),HCV replicon,exhibit activity
"C#C[C@@]1(O)[C@H](OC(=O)C(C)C)[C@@H](COC(=O)C(C)C)O[C@H]1n1cc(C(N)=O)c2c(N)ncnc21 [Compound 10, Isobutyric acid (2R,3R,4R,5R)-5-(4-amino-5-carbamoyl-pyrrolo[2,3-d]pyrimidin-7-yl)-4-ethynyl-4-hydroxy-2-isobutyryloxymethyl-tetrahydro-furan-3-yl ester]",activity in the CFI assay (in words),[3],exhibit activity
same,EC50,[3],~440 nM
same,reduction in viremia,"TSV01 dengue virus 2; 25 mg/kg, mouse model of dengue virus infection",about 30 fold
same,activity in vivo in a mouse model of dengue virus infection (in words),TSV01 dengue virus 2,exhibit activity
same,activity in the HCV replicon assay (in words),HCV replicon,exhibit activity
same,EC50,HCV replicon,~35 nM
"(2R,3R,4R,5R)-2-(4-amino-pyrrolo[2,3-d]pyrimidin-7-yl)-3-ethynyl-5-hydroxymethyl-tetrahydrofuran-3,4-diol salicylate salt",bioavailability (in words),[1],good bioavailability
same,storage properties (in words),[2],good storage properties
